This note sets out measurements from ChEMBL document CHEMBL3987221, “The Australian National University Dept Of Immunology Pathogen Box Compounds Screened” (2018).

Calls of active or inactive are those of the source. How the calls were made is not given here.

Assay [1] concerns the target T1, Ferrochelatase, mitochondrial (Homo sapiens) (UniProt P22830).
T1 sequence (whole entry): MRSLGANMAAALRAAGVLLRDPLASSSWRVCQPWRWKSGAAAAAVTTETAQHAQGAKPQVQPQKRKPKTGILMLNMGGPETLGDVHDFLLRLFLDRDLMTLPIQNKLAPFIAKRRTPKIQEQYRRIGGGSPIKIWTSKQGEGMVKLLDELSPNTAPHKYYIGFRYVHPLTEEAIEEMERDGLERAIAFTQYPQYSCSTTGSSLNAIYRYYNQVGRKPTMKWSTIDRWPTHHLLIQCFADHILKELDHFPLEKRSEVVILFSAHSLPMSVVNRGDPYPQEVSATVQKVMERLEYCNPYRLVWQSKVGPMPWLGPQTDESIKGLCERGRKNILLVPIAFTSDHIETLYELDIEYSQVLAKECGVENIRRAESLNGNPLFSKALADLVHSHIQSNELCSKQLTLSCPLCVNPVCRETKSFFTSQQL
Conditions: at 10 µM.
Description: Compound was evaluated for the inhibition of human FECH at 10uM

Assay [2] has as its target T2, Porphobilinogen deaminase (Homo sapiens) (UniProt P08397).
T2 sequence (whole entry): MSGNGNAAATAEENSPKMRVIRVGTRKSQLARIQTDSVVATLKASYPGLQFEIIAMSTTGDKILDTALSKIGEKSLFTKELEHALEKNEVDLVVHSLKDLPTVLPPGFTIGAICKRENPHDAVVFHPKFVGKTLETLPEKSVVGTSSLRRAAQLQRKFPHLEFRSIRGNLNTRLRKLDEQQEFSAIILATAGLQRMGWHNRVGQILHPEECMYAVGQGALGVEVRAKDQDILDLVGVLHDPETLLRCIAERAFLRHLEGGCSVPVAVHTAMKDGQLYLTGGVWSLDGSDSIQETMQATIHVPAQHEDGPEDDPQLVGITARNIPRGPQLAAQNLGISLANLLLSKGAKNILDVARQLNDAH
As to conditions: at 100 µM.
Description: Compound was evaluated for the inhibition of human HMBS at 100uM

As to `Cc1ncc(-c2ccnc(Nc3ccc(S(C)(=O)=O)cc3)n2)n1C(C)C`, the inhibition result in assay [1] and in assay [2] was “inactive” in each case.

Turning to `Cc1ccc2oc(-c3cc(NC(=O)Cc4ccccc4)ccc3Cl)nc2c1`, the inhibition result in assay [1] and in assay [2] was “inactive” throughout.

`CC(=O)NCC1CN(c2ccc(-c3ccc(CNCc4cn[nH]n4)cc3)c(F)c2)C(=O)O1` (stereo not drawn): the inhibition entry in assay [1] and in assay [2] was “inactive” in each case.

For `COc1cc(C2=NCCN2)cc2cc(-c3ccc(C4=NCCN4)cc3)oc12`, the inhibition entry in assay [1] and in assay [2] was “inactive” in each case.

For `c1ccc(Oc2ccc(-c3cc(CN4CCOCC4)[nH]n3)cc2)cc1`, the inhibition entry in assay [1] and in assay [2] was “inactive” throughout.

On to `Cc1cc(C2=NOC(c3cc(Cl)c(F)c(Cl)c3)(C(F)(F)F)C2)ccc1C(=O)NCc1ccc2c(c1)C(C)(C)OB2O` (stereo not drawn), for which the inhibition result in assay [1] and in assay [2] was “inactive” each time.

With `O=C(NC1CCN(c2ccnc3ccccc23)C1)c1cccc(C(F)(F)F)c1` (stereo not drawn), the inhibition result in assay [1] and in assay [2] was “inactive” each time.

As for `NCCC(O)C(=O)N[C@@H]1C[C@H](N)[C@@H](OC2O[C@H](CN)[C@@H](O)[C@H](O)[C@H]2O)[C@H](O)C1OC1O[C@H](CO)[C@@H](O)[C@H](N)[C@H]1O` (stereo partly drawn), the inhibition entry in assay [1] and in assay [2] was “inactive” in each case.

Regarding `O=C(NCCN1CCCC1)c1cc(NCCN2CCOCC2)nc2ccc(Cl)cc12`, the inhibition result in assay [1] and in assay [2] was “inactive” in each case.

For the compound `Nc1ncnc2[nH]nc(Cc3cccc4ccccc34)c12`, the inhibition entry in assay [1] and in assay [2] was “inactive” each time.

Take `Cc1c[nH]c(CCNC(=O)c2cc(-c3ccc(Cl)cc3)cs2)n1`: the inhibition result in assay [1] and in assay [2] was “inactive” throughout.

Regarding `O=C(OCc1ccccc1)N1CCC(c2cc(-c3ccncc3)c(-c3ccc(F)cc3)[nH]2)CC1`, the inhibition entry in assay [1] and in assay [2] was “inactive” throughout.

`O=C(Nc1nnc(-c2ccc(Cl)cc2)o1)c1cccc(C(F)(F)F)c1`: the inhibition result in assay [1] and in assay [2] was “inactive” each time.

Turning to `C[C@]1(O)C[C@@H](c2nc(-c3ccc4ccc(-c5ccccc5)nc4c3)c3c(N)nccn32)C1`, the inhibition entry in assay [1] and in assay [2] was “inactive” in each case.

In the case of `Clc1ccc(CCNc2cc(-c3ccccc3)nc3ncnn23)cc1`, the inhibition entry in assay [1] and in assay [2] was “inactive” each time.

With `CCc1c(C)nc(-n2nc(C)cc2NC(=O)c2ccccc2SC)[nH]c1=O`, the inhibition entry in assay [1] and in assay [2] was “inactive” in each case.

For `O=C(Nc1ccc(F)c(-c2nc3cc(-c4ccccc4)cnc3[nH]2)c1)N1CCCC1`, the inhibition entry in assay [1] and in assay [2] was “inactive” throughout.

`CC(Oc1ccccc1)C(=O)Nc1nc(-c2ccccn2)cs1` (stereo not drawn): the inhibition result in assay [1] and in assay [2] was “inactive” in each case.

With `COC(=O)c1c(NC(=O)c2cc3ccccc3oc2=O)sc2c1CCN(Cc1ccccc1)C2`, the inhibition entry in assay [1] and in assay [2] was “inactive” in each case.

As for `COc1cccc2c(C)nc(N=C(N)N)nc12`, the inhibition result in assay [1] and in assay [2] was “inactive” each time.

For `O=C1Nc2ccc(Br)cc2C12NCCc1c2[nH]c2ccccc12` (stereo not drawn), the inhibition result in assay [1] and in assay [2] was “inactive” each time.

On to `Cc1ccc(Oc2ccc(NC(=O)CNc3ccccc3N3CCCC3=O)cc2)cc1`, for which the inhibition entry in assay [1] and in assay [2] was “inactive” throughout.

`Cc1ccc(NC(=O)c2cc(S(=O)(=O)NC(C)(C)C)ccc2C)nc1`: the inhibition result in assay [1] and in assay [2] was “inactive” each time.

In the case of `O=C(c1ccc(NCCO)cc1)C1C[C@H]1c1ccc(Cl)cc1` (stereo partly drawn), the inhibition entry in assay [1] and in assay [2] was “inactive” throughout.

Consider `CC(=O)Oc1ccccc1C(=O)Nc1ncc([N+](=O)[O-])s1`, for which the inhibition result in assay [1] and in assay [2] was “inactive” in each case.

`COc1ccc(Cl)cc1NC(=O)CN(C)C(=O)c1cnn(-c2ccccc2)n1`: the inhibition entry in assay [1] and in assay [2] was “inactive” each time.

Turning to `Clc1cccc(CO[C@H]2CCc3ccccc3[C@@H]2n2ccnn2)c1`, the inhibition entry in assay [1] and in assay [2] was “inactive” each time.

As to `CCC(NC(=O)c1ccccc1NC(=O)c1ccc(C)cc1)C(=O)OC` (stereo not drawn), the inhibition entry in assay [1] and in assay [2] was “inactive” throughout.

As for `Clc1cccc(C(c2ccc(CN3CCNCC3)cc2)n2ccnc2)c1` (stereo not drawn), the inhibition entry in assay [1] and in assay [2] was “inactive” in each case.

`c1csc(-c2cnc3sc(NCC4CCOCC4)nn23)c1`: the inhibition entry in assay [1] and in assay [2] was “inactive” each time.

Consider `Nc1ccc2ncnc(Nc3ccc(OCc4cccc(F)c4)c(Cl)c3)c2c1`, for which the inhibition result in assay [1] and in assay [2] was “inactive” each time.

On to `Cc1cc(C)c2cc(C(=O)NC3CCCCCCC3)[nH]c2c1`, for which the inhibition entry in assay [1] and in assay [2] was “inactive” each time.

For `Cc1cc(NCC(C)C)c2[nH]nc(-c3ccccc3)c2n1`, the inhibition entry in assay [1] and in assay [2] was “inactive” throughout.

In the case of `Nc1c2c(nc3sc4c(c13)CCCC4)CCCC2`, the inhibition result in assay [1] and in assay [2] was “inactive” in each case.

With `COc1cccc(-c2nc3c(N4CCCC4)cccc3n2CC2CCCN2)n1` (stereo not drawn), the inhibition entry in assay [1] and in assay [2] was “inactive” throughout.

As to `NCC(c1cccs1)S(=O)(=O)c1ccccc1` (stereo not drawn), the inhibition result in assay [1] and in assay [2] was “inactive” throughout.

For the compound `CCN(CC)S(=O)(=O)c1ccc(C(=O)Nc2cc(C)nn2-c2nc(C)c(C)c(=O)[nH]2)cc1`, the inhibition entry in assay [1] and in assay [2] was “inactive” in each case.

As for `COc1ccccc1CNC(=O)c1cc(C2CC2)nc2c1cnn2C(C)C`, the inhibition result in assay [1] and in assay [2] was “inactive” in each case.

In the case of `Cc1cc(O)nc(-n2nc(C)cc2C)n1`, the inhibition entry in assay [1] and in assay [2] was “inactive” each time.

For `O=C(NC1CC1)c1ccc(N2CCC(Cc3ccccc3)CC2)nc1`, the inhibition result in assay [1] and in assay [2] was “inactive” throughout.

Consider `Cc1[nH]c2ccccc2c1C(c1cccs1)N1CCN(C)CC1` (stereo not drawn), for which the inhibition result in assay [1] and in assay [2] was “inactive” each time.

As to `Cc1nc(-c2ccccn2)nc(N(C)CCc2ccccc2)c1Cl`, the inhibition entry in assay [1] and in assay [2] was “inactive” each time.

`O=C(Nc1ccnc(-c2cccnc2)n1)c1cc(C(F)(F)F)cc(C(F)(F)F)c1`: the inhibition result in assay [1] and in assay [2] was “inactive” each time.

`Brc1c(-c2ccc3c(c2)OCO3)nc2ncccn12`: the inhibition entry in assay [1] and in assay [2] was “inactive” each time.

For `C[C@@H]1[C@H](O)[C@@H](C)/C=C/C=C/C=C/C=C/C=C/C=C/C=C/[C@H](O[C@@H]2O[C@H](C)[C@@H](O)[C@H](N)[C@@H]2O)C[C@@H]2O[C@](O)(C[C@@H](O)C[C@@H](O)[C@H](O)CC[C@@H](O)C[C@@H](O)CC(=O)O[C@H]1C)C[C@H](O)[C@H]2C(=O)O`, the inhibition entry in assay [1] and in assay [2] was “inactive” each time.

In the case of `CS(=O)(=O)N1CCC(CCn2nc(Cc3cccc4ccccc34)c3c(N)ncnc32)CC1`, the inhibition entry in assay [1] and in assay [2] was “inactive” throughout.

`COc1ccc(-c2nn(C(C)C)c3ncnc(N)c23)cc1OC`: the inhibition entry in assay [1] and in assay [2] was “inactive” throughout.

Regarding `Cc1cc(C(=O)Nc2ccc(-c3ccccc3)cc2)no1`, the inhibition result in assay [1] and in assay [2] was “inactive” in each case.

With `Cc1ccccc1C(=O)N1N=C(Nc2ccccc2)SC1(C)C`, the inhibition result in assay [1] and in assay [2] was “inactive” throughout.

For the compound `Nc1ncnc2c1c(Cc1cccc3ccccc13)nn2CC1CCNCC1`, the inhibition entry in assay [1] and in assay [2] was “inactive” each time.

`COc1ccccc1C(C)NCC(=O)Nc1cc(C(F)(F)F)ccc1Cl` (stereo not drawn): the inhibition entry in assay [1] and in assay [2] was “inactive” throughout.

On to `CC1(C)OB(O)c2ccc(C3=NOC(c4cc(Cl)c(F)c(Cl)c4)(C(F)(F)F)C3)cc21` (stereo not drawn), for which the inhibition result in assay [1] and in assay [2] was “inactive” in each case.

As to `N#Cc1nc(-c2ccccc2)oc1S(=O)(=O)c1ccc(Cl)cc1`, the inhibition result in assay [1] and in assay [2] was “inactive” each time.

`COc1ccc(Cn2cnc3c(-c4ccco4)nc(Cl)nc32)cc1`: the inhibition result in assay [1] and in assay [2] was “inactive” in each case.
